The subject of series [1] is acetic acid-induced colonic hypersensitivity. Put plainly: Visceromotor response to colorectal distension in acetic acid-sensitized rats. As to the method:
The visceromotor behavioral response to colorectal distension was measured by counting the number of abdominal contractions recorded by a strain gauge sutured onto the abdominal musculature as described in Gunter et al., Physiol. […] A 5 cm latex balloon catheter inserted via the anal canal into the colon was used for colorectal distensions. Constant pressure tonic distensions were performed in a graded manner (15, 30 or 60 mmHg) and were maintained for a period of 10 min and the numbers of abdominal muscle contractions were recorded to measure the level of colonic sensation. A 10 min recovery was allowed between distensions.
J. Physiol. […] In the present study, a low concentration of acetic acid (1.5 ml, 0.6%) was administered intracolonically to sensitize the colon without causing histological damage to the colonic mucosa as described in previous studies (Gunter et al., supra).
Injection volume was 0.2 mL using 100% propylene glycol as the vehicle. Three consecutive colorectal distensions at 15, 30 or 60 mmHg applied at 10-min intervals were recorded. Visceromotor responses were evaluated as the number of abdominal muscle contractions recorded during the 10-min periods of colorectal distension.
Adult male rats were used in the study. […] Specifically, rats were anesthetized with Isoflurane (2%) and were instrumented with a strain gauge force transducer for recording of abdominal muscle contractions. A latex balloon and catheter were inserted 11 cm into the colon. The animals were allowed a 30-min period to completely recover from the anesthesia and were then subjected to intracolonic infusion of acetic acid (1.5 mL, 0.6%). An additional 30-min period was allowed for sensitization of the colon. […] The protocol for colorectal distension was initiated 30-min post drug administration. After a basal reading of the number of abdominal contractions with the balloon inserted but not distended, three consecutive 10-min lasting colorectal distensions at 15, 30, and 60 mmHg were applied at 10-min intervals. Colorectal sensitivity was evaluated by counting the number of reflex abdominal contractions (i.e. the visceromotor response) observed within each distension period.
The visceromotor behavioral response to colorectal distension was measured by counting the number of abdominal contractions recorded by a strain gauge sutured onto the abdominal musculature as previously described Gunter et al., referenced above. Colorectal distensions were carried out utilizing a 5 cm latex balloon catheter inserted into the colon via the anal canal. Constant pressure tonic distensions were performed in a graded manner, i.e., the pressure was increased to the desired level of 15, 30, or 60 mmHg and then maintained for a period of 10 minutes during which the number of abdominal contractions were recorded to measure the level of colonic sensation. Ten minute recovery periods were allowed following each distension.

The test system of series [2] is stress-induced accelerated colonic transit. Briefly: Water avoidance stress (WAS) model of increased colonic transit, fecal pellet output. It counts as in vivo, rat. From the text:
At the end of the 1-hour stress period, the fecal pellets were counted and recorded. WAS causes an acceleration of colonic transit, which can be quantified by counting the number of fecal pellets, produced during the stress procedure. Rats were placed for 1-hour into a stress chamber onto a raised platform 7.5 cm×7.5 cm×9 cm (L×W×H) in the center of a stress chamber filled with room temperature water 8 cm in depth. The stress chamber was constructed from a rectangular plastic tub (40.2×60.2×31.2 cm). […] Ondansetron was supplied from APIN Chemicals LTD. […] MCI-225 was provided by Mitsubishi Pharma Corp. All drugs were dissolved in a vehicle of 100% propylene glycol (1,2-propanediol) by sonicating for a period of 10 minutes. Propylene glycol was obtained from Sigma Chemical Co. […] All drugs and the vehicle were administered as an i.p. injection in a volume of 0.2 mL.

Series [3] relates to small intestinal transit. Put plainly: Small Intestinal Transit Rodent Model (charcoal meal). It counts as in vivo, rat. The following applies: for Small intestinal transit, Mean (% of total length): 15 min test period. As to the method:
Following an overnight fast, rats were brought to the laboratory in their home cages and received an i.p. injection of one of the following: […] Control rats received no treatment. The treated rats were placed back in the home cages and after 30 min, were fed a 2 mL charcoal meal via an oral gavage. Small intestinal transit was measured following 15 min test-period. Each rat was placed briefly in a glass chamber with IsoFlo for anesthesia and sacrificed. The stomach and the small intestine were removed and the total length of the small intestine was measured. Transit was then measured as the distance that the charcoal meal had traveled along the small intestine and expressed as % of the total length. Animals were randomly assigned to experimental groups and experiments were performed as illustrated in Table 11. Small intestinal transit in rats was investigated by the passage of a charcoal meal along the small intestine during a defined time period (15-min). The animals were deprived of food for 12-16 hrs prior to the experiments. Rats were given a charcoal meal (a mixture of charcoal, gum arabic, and distilled water) as a 2 mL oral gavage and were sacrificed after a 15-min test period. The distance traveled by the charcoal meal was quantified as a percent of the small intestinal length, using the following equation: Transit (%)=cm traveled by meal/cm total small intestinal length×100 […]

Series [4] relates to retching and vomiting induced by cisplatin. Put plainly: Cisplatin-induced emesis in the ferret. It counts as in vivo, ferret (Mustela putorius furo). As to the method:
Following administration of the cisplatin and either MCI-225, ondansetron or vehicle alone, the occurrence of retching and vomiting was monitored for a period of 6 hours. […] Vomiting was defined as the forceful oral expulsion of upper gastrointestinal contents. The latency of the retching or vomiting response and the number of episodes were recorded for each animal and summarized for each experimental group (Wright et al., Infect. […] Following one hour of acclimation to the observation cage, ferrets received an intraperitoneal (i.p.) injection of cisplatin (5 mg/kg in 5 mL) followed in about 2 minutes by i.p. injection of a single dose of MCI-225 or ondansetron (Rudd and Naylor, Eur. J. Pharmacol., 322: 79-82 (1997)). […] Each animal received a single-dose drug treatment. In addition, three animals received an initial dose (30 mg/kg i.p.) and a second MCI-225 injection (30 mg/kg i.p.) 180 minutes following the initial dose. […] All groups were randomized.

In the case of `Cc1nccn1CC1CCc2c(c3ccccc3n2C)C1=O` (stereo not drawn) [Ondansetron, reference compound], the “Responses to moderate (30 mmHg) and high (60 mmHg) intraluminal pressure” value in series [1] (10 mg/kg i.p.) was “did not abolish the responses”. In series [1] (1, 5 or 10 mg/kg i.p.), the “Behavioral activity of the rats” value was “No significant changes”. Besides, the “Number of abdominal contractions (visceromotor response)” value in series [1] (1, 5 or 10 mg/kg i.p., 15, 30, 60 mmHg) was “dose-dependent decrease”. Moreover, the “Stress-induced fecal pellet output during 1 hour of WAS” value in series [2] (1, 5 and 10 mg/kg i.p.) is on record as “dose-dependent inhibition”. For the same molecule, in series [3] (1 mg/kg i.p.), the “Small intestinal transit, Mean (% of total length)” value came to 27.6%. Further, the “Small intestinal transit, Mean (% of total length)” value in series [3] (5 mg/kg i.p.) came to 32.1%. Also, the “Small intestinal transit, Mean (% of total length)” value in series [3] (10 mg/kg i.p.) was 18.4%. Further, the “Effect on small intestinal transit” value in series [3] (1, 5 or 10 mg/kg i.p.) is on record as “significant reduction”. In addition, the “Number of emetic events induced by cisplatin” value in series [4] (5 mg/kg and 10 mg/kg i.p.) is “dose-dependently reduced”. In series [4] (5 mg/kg i.p.), the “Latency” value came out at 288 ± 4 min, the “Retches (360 min)” value is reported as 11.2 ± 7.0, the “Total Events” value is on record as 11.5 ± 7.2 and the “Vomits (360 min)” value is given as 0.3 ± 0.2. Moreover, in series [4] (10 mg/kg i.p.), the “Latency” value stood at 313 ± 32 min, the “Retches (360 min)” value stood at 2.4 ± 1.6, the “Total Events” value amounted to 2.4 ± 1.6 and the “Vomits (360 min)” value is 0.0 ± 0.0.
For `CNCCC(Oc1ccccc1OC)c1ccccc1` (stereo not drawn) [Nisoxetine], the “Behavior in the home cage during the experiments” value in series [1] (30 mg/kg i.p.) is “increased exploratory behavior”. Besides, the “Visceromotor response to colorectal distension” value in series [1] (3, 10 or 30 mg/kg i.p.) is given as “no significant effect”. Besides, in series [2] (3, 10 or 30 mg/kg i.p.), the “WAS-induced fecal pellet output during 1 hour” value is given as “reduced by all doses”. For the same molecule, in series [2] (10 and 30 mg/kg i.p.), the “Fecal pellets produced during WAS compared to the vehicle treated group” value is recorded as “significantly fewer”. In addition, the “Small intestinal transit, Mean (% of total length)” value in series [3] (3 mg/kg i.p.) was found to be 40.3%; in series [3] (10 mg/kg i.p.), 38.6%; in series [3] (30 mg/kg i.p.), 4.7%. Also, the “Charcoal meal completely retained in the stomach” value in series [3] (30 mg/kg i.p.) is on record as 4 out of 5. The “Effect on small intestinal transit” value in series [3] (30 mg/kg i.p.) is “almost completely inhibited the transit”; in series [3] (3 or 10 mg/kg i.p.), “tendency to decrease”.

Values taken from patent US20070254891A1, “Crystalline forms of 4-(2-fluorophenyl)-6-methyl-2-(piperazin-1-yl)thieno[2,3-d]pyrimidine” (Dynogen Pharmaceuticals, Inc., priority 2006, published 2007).
